# Laboratory results as given in PMC10033812, “Imaging the TGFβ type I receptor in pulmonary arterial hypertension” (EJNMMI Research, 2023).
# How the values were obtained:
# [1] = target: T1, ALK5 (Rattus norvegicus, UniProt P80204); test: Autoradiography on control, MCT- and SuHx-exposed rat lung sections; type: binding; settings: for Binding to MCT-exposed lungs compared with control lungs: MCT-exposed lungs (Wistar) vs healthy lungs normalized to 100%; for Binding to MCT-exposed lungs compared with control lungs / Binding to SuHx-exposed lungs compared with control lungs: n = 3; for Binding to SuHx-exposed lungs compared with control lungs: SuHx-exposed lungs (S.D.) vs healthy lungs normalized to 100%
# T1 sequence (P80204 30-501): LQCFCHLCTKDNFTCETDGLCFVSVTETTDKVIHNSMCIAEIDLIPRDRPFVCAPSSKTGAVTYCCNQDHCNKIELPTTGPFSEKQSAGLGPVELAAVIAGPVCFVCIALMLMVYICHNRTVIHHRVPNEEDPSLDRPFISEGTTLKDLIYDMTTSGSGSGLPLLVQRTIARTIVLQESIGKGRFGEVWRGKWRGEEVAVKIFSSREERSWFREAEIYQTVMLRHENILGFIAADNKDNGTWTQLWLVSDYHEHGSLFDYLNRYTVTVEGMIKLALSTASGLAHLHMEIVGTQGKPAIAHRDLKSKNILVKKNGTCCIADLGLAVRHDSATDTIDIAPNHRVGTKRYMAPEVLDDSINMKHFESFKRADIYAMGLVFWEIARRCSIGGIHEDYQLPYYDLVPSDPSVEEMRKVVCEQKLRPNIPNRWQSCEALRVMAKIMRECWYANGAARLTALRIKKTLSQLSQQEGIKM
# Method: Sections of 10 μm thickness were cut using a Cryostat ([…]) and thaw mounted on Thermo Scientific Superfrost plus adhesion slides. The sections were stored at- 20 °C until further handling. Tissue sections were defrosted, washed three times for 5 min with 5 mM Tris HCl buffer, pH 7.4 and dried in a cold stream of air. […] Sigma-Aldrich, Zwijndrecht, The Netherlands). The sections were washed in cold 5 mM Tris HCl buffer, pH 7.4, (three times 1 min) followed by a dip in ice cold water. […] Screens were developed on a Typhoon FLA 7000 phosphor imager (GE Healthcare lifescience, Buckinghamshire, UK) and analysed using Image Quant TL v8.1.0.0 (GE Healthcare lifescience, Buckinghamshire, UK). […] Statistical analysis was performed using Graphpad PRISM (v 5.02, Graphpad Software Inc). Tracer uptake in the tissue was compared with tracer uptake co-administered with SB431542 by using a one-tailed unpaired t-test. Differences were considered significant if p < 0.05. Adjacent tissue sections were used for autoradiography experiments.
# [2] = Ex vivo biodistribution study in healthy male Wistar rats; design: species or system rat; settings: i.v., ± SEM; for Retention in healthy lung tissue: 15 min p.i., n = 4
# Method: A biodistribution study and metabolite analysis was carried out in healthy male Wistar rats (214 ± 15 g, Charles River, Germany). Rats were injected with 21 ± 15 MBq of [^11C]LR111 in the tail vein under isoflurane anaesthesia (2% in O2 at 1 L min^−1). Rats were sacrificed under similar isoflurane anaesthesia by exsanguination and dissected at 5, 15, 30 and 60 min post injection (p.i.) (n = 4 per time point). Rats were injected with 14 ± 5 MBq [^18F]EW-7197 in the tail vein under isoflurane anaesthesia (2% in O2 at 1 L min^−1). Rats were sacrificed under similar isoflurane anaesthesia by exsanguination and dissected at 5, 15, 30 and 45 min post injection (p.i.) (n = 4 per time point). Blood, heart, lungs, liver, kidneys, urine, bone and brain were collected, weighed and counted for radioactivity (Wallac 1210 Compugamma, PerkinElmer, Waltham, MA, USA). Biodistribution data were expressed as percentage injected dose per gram tissue (%ID·g^−1) ± standard error of the mean (SEM). Blood at 15 min and 60 min p.i. ([^11C]LR111) and blood at 15 min and 45 min p.i. ([^18F]EW-7197), withdrawn from the abdominal aorta, (~ 7 mL) was collected in a heparin coated tube and centrifuged at 5000 rpm to separate plasma from blood cells (Hettich universal 32, Andreas Hettich GmbH & Co. KG, Tuttlingen, Germany). […] Fractions were counted for radioactivity (Wallac 1210 Compugamma, PerkinElmer, Waltham, MA, USA). The percentage of intact tracer in the non-polar fraction was determined by online HPLC analysis on a Dionex (Sunnyvale, CA, USA) UltiMate 3000 HPLC equipment with Chromeleon software (version 6.8) equipped with a Gemini C18 column (5 μm, 10 × 250 mm, Phenomenex, Torrance, CA, USA) with a mixture of MeCN (A) and 0.1% TFA in water (B) as eluent according to the following scheme 0 min: 90% B; 12 min 15% B; 8 min 90% B at 3.5 mL.min^−1 [^11C]LR111 Rt = 10.7 min and [^18F]EW-7197 Rt = 9.2 min. Results were expressed as percentage of intact tracer, polar metabolites and non-polar metabolites ± SEM (n = 4 for each time point).
# [3] = Ex vivo metabolite analysis in rat blood plasma (SPE/HPLC); settings: for Intact tracer: rat blood plasma, ± SEM, n = 4; for In vivo metabolic stability in rats: in words
# Method: A biodistribution study and metabolite analysis was carried out in healthy male Wistar rats (214 ± 15 g, Charles River, Germany). Rats were injected with 21 ± 15 MBq of [^11C]LR111 in the tail vein under isoflurane anaesthesia (2% in O2 at 1 L min^−1). Rats were sacrificed under similar isoflurane anaesthesia by exsanguination and dissected at 5, 15, 30 and 60 min post injection (p.i.) (n = 4 per time point). Rats were injected with 14 ± 5 MBq [^18F]EW-7197 in the tail vein under isoflurane anaesthesia (2% in O2 at 1 L min^−1). Rats were sacrificed under similar isoflurane anaesthesia by exsanguination and dissected at 5, 15, 30 and 45 min post injection (p.i.) (n = 4 per time point). Blood, heart, lungs, liver, kidneys, urine, bone and brain were collected, weighed and counted for radioactivity (Wallac 1210 Compugamma, PerkinElmer, Waltham, MA, USA). Biodistribution data were expressed as percentage injected dose per gram tissue (%ID·g^−1) ± standard error of the mean (SEM). Blood at 15 min and 60 min p.i. ([^11C]LR111) and blood at 15 min and 45 min p.i. ([^18F]EW-7197), withdrawn from the abdominal aorta, (~ 7 mL) was collected in a heparin coated tube and centrifuged at 5000 rpm to separate plasma from blood cells (Hettich universal 32, Andreas Hettich GmbH & Co. KG, Tuttlingen, Germany). Solid phase extraction (SPE) cartridges (tC2, Waters, Ettenleur, The Netherlands) were preconditioned by washing with 6 mL MeOH and 2 × 6 mL H2O. Plasma (1 mL) was mixed with 6.0 M HCl (50 µL) and loaded on the SPE cartridge (> 99% recovery). The polar metabolite fraction was obtained by eluting the SPE cartridge with H2O (3 mL), the non-polar fraction by subsequent elution with MeOH (2 mL) and H2O (1 mL). Fractions were counted for radioactivity (Wallac 1210 Compugamma, PerkinElmer, Waltham, MA, USA). The percentage of intact tracer in the non-polar fraction was determined by online HPLC analysis on a Dionex (Sunnyvale, CA, USA) UltiMate 3000 HPLC equipment with Chromeleon software (version 6.8) equipped with a Gemini C18 column (5 μm, 10 × 250 mm, Phenomenex, Torrance, CA, USA) with a mixture of MeCN (A) and 0.1% TFA in water (B) as eluent according to the following scheme 0 min: 90% B; 12 min 15% B; 8 min 90% B at 3.5 mL.min^−1 [^11C]LR111 Rt = 10.7 min and [^18F]EW-7197 Rt = 9.2 min. Results were expressed as percentage of intact tracer, polar metabolites and non-polar metabolites ± SEM (n = 4 for each time point).
# [4] = target: T1, ALK5; test: Dynamic PET imaging of lung uptake in control, MCT- and SuHx-exposed rats; type: in vivo; settings: for Difference in lung uptake between control group and diseased animals after 15 min: after 15 min p.i.
# Method: Dynamic PET imaging was performed with NanoPET/CT and nanoPET/MR 1 T scanners (Mediso Ltd., Hungary, Budapest) with identical PET components. All injections were performed via a tail vein catheter. […] Rats were positioned on the scanner bed and the respiratory rate was monitored for the duration of the experiment, adjusting anaesthesia when required. Animals first underwent a computed tomography (CT) or magnetic resonance imaging (MRI) scan to keep the isoflurane exposure as low as possible (see Fig. 2 for the set-up of the experiment). […] Dynamic PET scans, starting at the time of tracer administration, were acquired for 60 min. […] At day 2, all animals received SB431542 30 min prior the injection of [^11C]LR111. In addition, the control group received a cyclosporine A (Sigma-Aldrich, Zwijndrecht, The Netherlands) injection at day 3, 30 min prior to the injection of [^11C]LR111. Finally, at day 4, SB431542 and cyclosporine A injections were administered 30 min prior to the injection of [^11C]LR111. After these scanning experiments, the animals were sacrificed by cervical dislocation. Lung tissues were removed from MCT (n = 3), SuHx (n = 3) and healthy rats (n = 3). They were filled with 50% Tissue-Tek (VWR, Amsterdam, The Netherlands) and 50% physiological salt and snap frozen in liquid nitrogen. Positron emission scans were acquired in list mode and rebinned into the following frame sequence: 4 × 5, 4 × 10, 2 × 30, 3 × 60, 2 × 300, 1 × 600, 1 × 900 and 1 × 1200 s. The scans were reconstructed with a spatial resolution of 0.4 mm and were corrected for attenuation and scatter. The scans of the first 30 s were combined to correct for injection speed differences. Images were analysed using the freely available software AMIDE, version 1.0.4 (http://amide.sourceforge.net/). […] Uptake was expressed as standard uptake values (SUV), which was calculated according to the following equation: SUV=%uptake of the total tracer dose/volume of the region of interest/bodyweight Error bars indicate standard deviation. Statistical analysis was performed using Graphpad PRISM (v 5.02, Graphpad Software Inc). Lung uptake in the control group was compared with uptake in the diseased animals with a one-tailed unpaired t-test. Differences were considered significant if p < 0.05. The representative PET images were generated using VivoQuant2020.
# [5] = tested on: P-gp; test: PET imaging after cyclosporine A (efflux pump inhibitor) in healthy rats; type: in vivo, rat; settings: increased lung uptake in healthy rats after cyclosporine A
# Method: Dynamic PET imaging was performed with NanoPET/CT and nanoPET/MR 1 T scanners (Mediso Ltd., Hungary, Budapest) with identical PET components. All injections were performed via a tail vein catheter. […] Rats were positioned on the scanner bed and the respiratory rate was monitored for the duration of the experiment, adjusting anaesthesia when required. Animals first underwent a computed tomography (CT) or magnetic resonance imaging (MRI) scan to keep the isoflurane exposure as low as possible (see Fig. 2 for the set-up of the experiment). All tracer injections were performed via a tail vein catheter using 4 and 2% isoflurane in 1 L min^−1 oxygen for induction and maintenance, respectively (see Table 1 for animal weights and injected doses). Dynamic PET scans, starting at the time of tracer administration, were acquired for 60 min. Immediately after the [^11C]LR111 scan, a bolus injection of [^18F]EW-7197 was administered, in order to minimize the time that rats were exposed to isoflurane, and another dynamic PET scan was acquired. […] Images were analysed using the freely available software AMIDE, version 1.0.4 (http://amide.sourceforge.net/). […] Uptake was expressed as standard uptake values (SUV), which was calculated according to the following equation: SUV=%uptake of the total tracer dose/volume of the region of interest/bodyweight
# [6] = PET, 15 min p.i., MCT rats, baseline scan
# [7] = PET, 15 min p.i., SuHx rats, baseline scan
# [8] = PET, 15 min p.i., healthy Wistar rats, SB431542 20 mg kg^−1 30 min prior
# [9] = PET, 15 min p.i., healthy Wistar rats, baseline
# [10] = PET, 15 min p.i., healthy Wistar rats, cyclosporine A 50 mg kg^−1 30 min prior
# [11] = PET, 15 min p.i., healthy Wistar rats, cyclosporine A + SB431542
# [12] = PET, 15 min p.i., healthy Wistar rats
Binding to MCT-exposed lungs compared with control lungs [1] [times],Binding to SuHx-exposed lungs compared with control lungs [1] [times],Retention in healthy lung tissue [2] [% ID·g^−1],Intact tracer ([3]; 15 min p.i.) [%],In vivo metabolic stability in rats [3],"Lung uptake in MCT-exposed rats compared with control group ([4]; PET, 15 min p.i.) [fold]","Lung uptake in SuHx rats compared with control group ([4]; PET, 15 min p.i.)","Uptake in the lungs [4, 6] [SUV]","Uptake in the lungs [4, 7] [SUV]","Uptake in the lungs [4, 8] [SUV]","Uptake in the lungs [4, 9] [SUV]","Uptake in the lungs [4, 10] [SUV]","Uptake in the lungs [4, 11] [SUV]",Difference in lung uptake between control group and diseased animals after 15 min ([4]; PET),Structure (SMILES),also measured
1.5,3.2,0.45 ± 0.03,74 ± 5,moderately stable,1.1,similar,1.10 ± 0.25,1.04 ± 0.13,0.85 ± 0.12,1.03 ± 0.07,0.85 ± 0.19,1.00 ± 0.32,no difference,Cc1csc(-c2nc(CN[11C](=O)OCC(C)C)[nH]c2-c2ccc3ncsc3c2)n1 [[^11C]LR111],Tracer binding when SB431542 was added ([1]; SB431542 94 µM): could be blocked; Intact tracer ([3]; 60 min p.i.): 46 ± 2%
1.2,1.2,0.56 ± 0.07,55 ± 16,moderately stable,1.4,2.5 fold,0.81 ± 0.15,1.47 ± 0.47,0.44 ± 0.12,0.59 ± 0.10,0.90 ± 0.18,0.72 ± 0.21,no difference,"Cc1cccc(-c2[nH]c(CNc3ccccc3[18F])nc2-c2ccc3ncnn3c2)n1 [[^18F]EW-7197, N-((4-(1,2,4 triazolo 1,5-apyridin-6-yl)-5-(6-methylpyridin-2-yl)-1H-imidazol-2-yl)methyl)-2-fluoroaniline]","Retention in bone [2]: 0.21 ± 0.02 % ID·g^−1; Intact tracer ([3]; 45 min p.i.): 23 ± 5%; Blocking of lung uptake with SB431542 in PET scans ([4]; PET images, SB431542 20 mg kg^−1): could be blocked; Lung accumulation with cyclosporine A and SB431542 relative to baseline [4, 12]: 1.2 fold; Lung accumulation with cyclosporine A relative to baseline [4, 12]: 1.5 fold; Substrate for P-gp [5]: substrate for P-gp"
